Tested on: Hartley-type male guinea pigs
Assay: Guinea Pig Homogeneous Skin Passive Anaphylaxis Assay (PCA reaction)
Format: in vivo, guinea pig (Hartley-type)
Conditions: 10 mg/kg oral, 48 h after sensitization
How it was run: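 Male Hartley guinea pigs (250~300 g) given intradermal back injections of 120-fold-diluted anti-OVA serum; 48 h later test substance dosed orally at 10 mg/kg, then challenged i.v. with OVA plus Evans Blue. Dye-spot area (long × short diameter, mm^2) measured at 30 min; inhibition % calculated against solvent control.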

Compound | Allergic reaction inhibitory index (%)
CC(=O)Oc1ccc2c(OC(C)=O)c(OC/C=C(\C)CCC=C(C)C)c(=O)oc2c1 [Compound 22, 3-(geranyloxy)-4,7-(diacetoxy)-2H-1-benzopyran-2-one] | 31

Same assay, conditions: Cavia porcellus, 10 mg/kg oral, 48 h after sensitization, read-out: Allergic reaction inhibitory index (%)

Compound | inhibition in vivo at 10 mg/kg [%]
COc1ccc2c(OC(C)=O)c(OC(=O)c3ccccc3)c(=O)oc2c1 [Compound 35, 3-(benzoyloxy)-4-(acetoxy)-7-(methoxy)-2H-1-benzopyran-2-one] | 30
CC(C)Oc1c(O)c2c(O)cccc2oc1=O [Compound 182, 3-(isopropoxy)-4,5-(dihydroxy)-2H-1-benzopyran-2-one] | 31
CCCCCCCCCCOc1c(O)c2ccc(OC(C)C)cc2oc1=O [Compound 48, 3-(decyloxy)-4-hydroxy-7-(isopropoxy)-2H-1-benzopyran-2-one] | 42
CC(=O)Oc1ccc2c(OC(C)=O)c(OC(C)=O)c(=O)oc2c1 [Compound 11, 3,4,7-(triacetoxy)-2H-1-benzopyran-2-one] | 31
CCCCCCCCCCOc1cccc2c(O)c(OC/C=C(\C)CCC=C(C)C)c(=O)oc12 [Compound 151, 3-(geranyloxy)-4-hydroxy-8-(decyloxy)-2H-1-benzopyran-2-one] | 34
COc1c(OC(C)=O)c2c(OC/C=C(\C)CCC=C(C)C)cccc2oc1=O [Compound 252, 3-(methoxy)-4-(acetoxy)-5-(geranyloxy)-2H-1-benzopyran-2-one] | 32
CCCCOc1cccc2oc(=O)c(OC(=O)c3ccccc3)c(O)c12 [Compound 226, 3-(benzoyloxy)-4-hydroxy-5-(butoxy)-2H-1-benzopyran-2-one] | 33
CC(C)=CCC/C(C)=C/COc1cccc2oc(=O)c(O)c(O)c12 [Compound 245, 3,4-(dihydroxy)-5-(geranyloxy)-2H-1-benzopyran-2-one] | 37
COc1c(OC/C=C(\C)CCC=C(C)C)c2c(OC(C)C)cccc2oc1=O [Compound 222, 3-(methoxy)-4-(geranyloxy)-5-(isopropoxy)-2H-1-benzopyran-2-one] | 32
CCCCCCCCCCOc1cccc2oc(=O)c(OC(=O)c3ccccc3)c(OC/C=C(\C)CCC=C(C)C)c12 [Compound 240, 3-(benzoyloxy)-4-(geranyloxy)-5-(decyloxy)-2H-1-benzopyran-2-one] | 30
CC(=O)Oc1c(OC(=O)c2ccccc2)c(=O)oc2cccc(OC/C=C(\C)CCC=C(C)C)c12 [Compound 247, 3-(benzoyloxy)-4-(acetoxy)-5-(geranyloxy)-2H-1-benzopyran-2-one] | 34
CC(C)=CCC/C(C)=C/COc1c(OC(=O)c2ccccc2)c(=O)oc2c(O)cccc12 [Compound 106, 3-(benzoyloxy)-4-(geranyloxy)-8-hydroxy-2H-1-benzopyran-2-one] | 31
CC(=O)Oc1c(OC(C)C)c2cccc(O)c2oc1=O [Compound 100, 3-(acetoxy)-4-(isopropoxy)-8-hydroxy-2H-1-benzopyran-2-one] | 30
CC(=O)Oc1c(O)c2ccc(O)cc2oc1=O [Compound 7, 3-(acetoxy)-4,7-(dihydroxy)-2H-1-benzopyran-2-one] | 48
CC(C)Oc1ccc2c(OC(=O)c3ccccc3)c(OC(=O)c3ccccc3)c(=O)oc2c1 [Compound 47, 3,4-(dibenzoyloxy)-7-(isopropoxy)-2H-1-benzopyran-2-one] | 31
CCCCCCCCCCOc1c(OC(C)=O)c(=O)oc2c(OC(C)C)cccc12 [Compound 136, 3-(acetoxy)-4-(decyloxy)-8-(isopropoxy)-2H-1-benzopyran-2-one] | 33
COc1cccc2oc(=O)c(OC(C)=O)c(OC(=O)c3ccccc3)c12 [Compound 197, 3-(acetoxy)-4-(benzoyloxy)-5-(methoxy)-2H-1-benzopyran-2-one] | 32
COc1cccc2oc(=O)c(O)c(OC/C=C(\C)CCC=C(C)C)c12 [Compound 204, 3-hydroxy-4-(geranyloxy)-5-(methoxy)-2H-1-benzopyran-2-one] | 30
CC(C)=CCC/C(C)=C/COc1c(OC/C=C(\C)CCC=C(C)C)c2cccc(O)c2oc1=O [Compound 109, 3,4-(digeranyloxy)-8-hydroxy-2H-1-benzopyran-2-one] | 34
COc1cccc2c(OC(C)=O)c(O)c(=O)oc12 [Compound 112, 3-hydroxy-4-(acetoxy)-8-(methoxy)-2H-1-benzopyran-2-one] | 32
CC(=O)Oc1c(O)c(=O)oc2c(O)cccc12 [Compound 94, 3,8-(dihydroxy)-4-(acetoxy)-2H-1-benzopyran-2-one] | 36
CCCCCCCCCCOc1c(OC)c(=O)oc2cc(OC(C)C)ccc12 [Compound 50, 3-(methoxy)-4-(decyloxy)-7-(isopropoxy)-2H-1-benzopyran-2-one] | 33
O=c1oc2cc(O)ccc2c(O)c1O [Compound 5, 3,4,7-trihydroxy-2H-1-benzopyran-2-one] | 68

Compound | inhibition in vivo at 10 mg/kg [%]
CCCCCCCCCCOc1cccc2oc(=O)c(O)c(O)c12 [Compound 230, 3,4-(dihydroxy)-5-(decyloxy)-2H-1-benzopyran-2-one] | 43
CCCCCCCCCCOc1c(OC)c2cccc(OC)c2oc1=O [Compound 117, 3-(decyloxy)-4,8-(dimethoxy)-2H-1-benzopyran-2-one] | 32
CC(C)=CCC/C(C)=C/COc1c(OC(C)C)c2c(OC(C)C)cccc2oc1=O [Compound 221, 3-(geranyloxy)-4,5-(diisopropoxy)-2H-1-benzopyran-2-one] | 33
CCCCCCCCCCOc1cccc2oc(=O)c(OC/C=C(\C)CCC=C(C)C)c(OC)c12 [Compound 241, 3-(geranyloxy)-4-(methoxy)-5-(decyloxy)-2H-1-benzopyran-2-one] | 32
CC(C)=CCC/C(C)=C/COc1c(O)c2cccc(O)c2oc1=O [Compound 102, 3-(geranyloxy)-4,8-(dihydroxy)-2H-1-benzopyran-2-one] | 35
COc1c(OC)c2ccc(O)cc2oc1=O [Compound 17, 3,4-(dimethoxy)-7-hydroxy-2H-1-benzopyran-2-one] | 31
CC(C)Oc1ccc2c(OC(=O)c3ccccc3)c(OC(C)C)c(=O)oc2c1 [Compound 52, 3,7-(diisopropoxy)-4-(benzoyloxy)-2H-1-benzopyran-2-one] | 32
COc1cccc2oc(=O)c(OC/C=C(\C)CCC=C(C)C)c(OC(=O)c3ccccc3)c12 [Compound 205, 3-(geranyloxy)-4-(benzoyloxy)-5-(methoxy)-2H-1-benzopyran-2-one] | 31
CC(=O)Oc1c(OC/C=C(\C)CCC=C(C)C)c(=O)oc2cc(OC/C=C(\C)CCC=C(C)C)ccc12 [Compound 85, 3,7-(digeranyloxy)-4-(acetoxy)-2H-1-benzopyran-2-one] | 33
CCCCCCCCCCOc1c(OC)c(=O)oc2c(OC(C)C)cccc12 [Compound 135, 3-(methoxy)-4-(decyloxy)-8-(isopropoxy)-2H-1-benzoyran-2-one] | 30
CCCCCCCCCCOc1cccc2c(OC/C=C(\C)CCC=C(C)C)c(O)c(=O)oc12 [Compound 152, 3-hydroxy-4-(geranyloxy)-8-(decyloxy)-2H-1-benzopyran-2-one] | 31
CC(=O)Oc1c(O)c(=O)oc2cc(OC/C=C(\C)CCC=C(C)C)ccc12 [Compound 76, 3-hydroxy-4-(acetoxy)-7-(geranyloxy)-2H-1-benzopyran-2-one] | 32
COc1ccc2oc(=O)c(OC(C)=O)c(O)c2c1 [Compound 278, 3-(acetoxy)-4-(hydroxy)-6-(methoxy)-2H-1-benzopyran-2-one] | 36
CC(C)=CCC/C(C)=C/COc1cccc2oc(=O)c(O)c(OC/C=C(\C)CCC=C(C)C)c12 [Compound 254, 3-hydroxy-4,5-(digeranyloxy)-2H-1-benzopyran-2-one] | 30
CC(=O)Oc1c(OC/C=C(\C)CCC=C(C)C)c(=O)oc2c(OC/C=C(\C)CCC=C(C)C)cccc12 [Compound 169, 3,8-(digeranyloxy)-4-(acetoxy)-2H-1-benzopyran-2-one] | 30
CCCCCCCCCCOc1cccc2oc(=O)c(OC(=O)c3ccccc3)c(O)c12 [Compound 229, 3-(benzoyloxy)-4-hydroxy-5-(decyloxy)-2H-1-benzopyran-2-one] | 37
COc1c(O)c(=O)oc2ccc(O)cc12 [Compound 267, 3,6-(dihydroxy)-4-(methoxy-2H-1-benzopyran-2-one] | 34
COc1ccc2c(O)c(OC(C)=O)c(=O)oc2c1 [Compound 29, 3-(acetoxy)-4-hydroxy-7-(methoxy)-2H-1-benzopyran-2-one] | 46
CC(C)=CCC/C(C)=C/COc1c(OC/C=C(\C)CCC=C(C)C)c2c(OC(C)C)cccc2oc1=O [Compound 223, 3,4-(digeranyloxy)-5-(isopropoxy)-2H-1-benzopyran-2-one] | 33
COc1cccc2oc(=O)c(O)c(OC(C)=O)c12 [Compound 196, 3-hydroxy-4-(acetoxy)-5-(methoxy)-2H-1-benzopyran-2-one] | 33
CC(C)=CCC/C(C)=C/COc1c(OC/C=C(\C)CCC=C(C)C)c2ccc(O)cc2oc1=O [Compound 26, 3,4-(digeranyloxy)-7-hydroxy-2H-1-benzopyran-2-one] | 30
CC(C)=CCC/C(C)=C/COc1c(O)c2cccc(OC/C=C(\C)CCC=C(C)C)c2oc1=O [Compound 167, 3,8-(digeranyloxy)-4-hydroxy-2H-1-benzopyran-2-one] | 30
CCCCOc1cccc2c(O)c(O)c(=O)oc12 [Compound 128, 3,4-(dihydroxy)-8-(butyloxy)-2H-1-benzopyran-2-one] | 40
